Assay [1] deals with T1, Sigma non-opioid intracellular receptor 1 (Homo sapiens, UniProt Q99720). The assay can be described thus: Displacement of [3H](+)-pentazocine from sigma 1 receptor in HEK293 cells assessed as inhibition constant by radioligand competition binding assay. Format: cell-based. Background: Loss of bound radioactivity is the signal in a displacement assay; it reports binding, not function.

Assay [2] addresses T2, Sigma intracellular receptor 2 (Homo sapiens, UniProt Q5BJF2). Description: Displacement of [3H](+)-ditolylguanidine from human sigma 2 receptor transfected in human HEK293T cells assessed as inhibition constant in presence of (+)-pentazocine by radioligand competition binding assay. Format: cell-based, HEK293.
Assay [3] deals with T2, Sigma intracellular receptor 2. Description: Binding affinity to sigma 2 receptor (unknown origin) assessed as inhibition constant.
Assay [4] concerns the target T1, Sigma non-opioid intracellular receptor 1. Description: Binding affinity to sigma 1 receptor (unknown origin) assessed as inhibition constant.
The target in assay [5] is T3, Sigma intracellular receptor 2 (Rattus norvegicus, UniProt Q5U3Y7).
T3 sequence (Q5U3Y7 whole entry): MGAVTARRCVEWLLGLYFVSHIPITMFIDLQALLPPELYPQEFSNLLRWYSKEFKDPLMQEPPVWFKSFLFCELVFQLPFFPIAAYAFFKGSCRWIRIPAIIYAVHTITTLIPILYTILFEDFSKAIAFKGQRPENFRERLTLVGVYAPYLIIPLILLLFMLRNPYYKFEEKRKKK
The assay can be described thus: biochemical.
Description: Binding affinity to sigma 2 receptor in rat PC12 cells assessed as inhibition constant

The structures appear in SMILES notation.

T2 sequence (Q5BJF2 whole entry): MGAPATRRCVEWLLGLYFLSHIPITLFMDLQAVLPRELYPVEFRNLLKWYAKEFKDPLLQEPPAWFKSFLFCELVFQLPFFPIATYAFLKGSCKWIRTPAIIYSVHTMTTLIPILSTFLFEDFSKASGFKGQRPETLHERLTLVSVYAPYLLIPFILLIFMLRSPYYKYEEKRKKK
T1 sequence (Q99720 whole entry): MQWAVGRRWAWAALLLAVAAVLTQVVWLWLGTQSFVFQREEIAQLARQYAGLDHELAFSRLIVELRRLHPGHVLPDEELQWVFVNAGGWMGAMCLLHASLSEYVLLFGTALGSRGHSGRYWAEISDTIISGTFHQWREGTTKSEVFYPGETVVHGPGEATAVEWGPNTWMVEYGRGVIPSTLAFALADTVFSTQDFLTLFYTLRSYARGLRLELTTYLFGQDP

In the case of `O=C(OCc1cccc(F)c1)N1CC[C@@H]2C[C@H]1c1cc(N3CCN(CCCF)CC3)ccc12`, the figures for the Ki in assay [1] and in assay [2] were 0.0172 µM and 0.0212 µM, respectively.

With `CN1CC(C(=O)N2CCN(c3ccc4c(c3)[C@@H]3C[C@H]4CCN3C(=O)OCc3ccccc3)CC2)C1`, the Ki (usually a measure of affinity in units of concentration, obtained from inhibition or displacement) was determined as 0.0352 µM in assay [3] and 0.0531 µM in assay [4].

Turning to `O=C(OCc1ccccc1)N1CC[C@@H]2C[C@H]1c1cc(N3CCN(CCCF)CC3)ccc12`, the results for the Ki in assay [3], in assay [1] and in assay [2] were 0.0092 µM, 0.0377 µM and 0.0092 µM, respectively.

With `CNCCC(=O)N1CCN(c2ccc3c(c2)[C@@H]2C[C@H]3CCN2C(=O)OCc2ccccc2)CC1`, the Ki in assay [3] stood at 0.11 µM; in assay [4], 0.189 µM.

Consider `CN(C)C1CCN(c2ccc3c(c2)[C@@H]2C[C@H]3CCN2C(=O)OCc2ccccc2)CC1`, for which the Ki in assay [3] was 0.0315 µM; in assay [1] it was 0.14 µM.

In the case of `COCCCN1CCN(c2ccc3c(c2)[C@@H]2C[C@H]3CCN2C(=O)OCc2ccccc2)CC1`, the results for the inhibition constant (Ki) in assay [3] and in assay [4] were 0.008 µM and 0.0592 µM, respectively.

Consider `CN1CC(CN2CCN(c3ccc4c(c3)[C@@H]3C[C@H]4CCN3C(=O)OCc3ccccc3)CC2)C1`, for which the results for the Ki in assay [3] and in assay [1] were 0.0244 µM and 0.0941 µM, respectively.

`O=C(OCc1ccccc1)N1CC[C@@H]2C[C@H]1c1cc(N3CC4CCC(C3)N4CCCF)ccc12`: the values for the inhibitory constant (Ki) in assay [1] and in assay [2] were 0.0704 µM and 0.0177 µM, respectively.

For the compound `COCCN1CCN(c2ccc3c(c2)[C@H]2C[C@@H]3CCN2C(=O)OCc2ccccc2)CC1`, the figures for the Ki in assay [1] and in assay [2] were 0.312 µM and 0.129 µM, respectively.

With `O=C(OCc1ccccc1)N1CC[C@H]2C[C@@H]1c1cc(N3CCN(CCCF)CC3)ccc12`, the Ki in assay [1] turned out to be 0.0817 µM; in assay [2], 0.0243 µM.

Consider `O=C(OCc1ccccc1)N1CC[C@@H]2C[C@H]1c1cc(N3CCCN(CCCF)CC3)ccc12`, for which the Ki in assay [1] is 0.0117 µM; in assay [2] it was 0.0222 µM.

Consider `O=C(OCc1ccc(Cl)cc1)N1CC[C@@H]2C[C@H]1c1cc(N3CCN(CCCF)CC3)ccc12`, for which the Ki in assay [1] worked out at 0.0949 µM; in assay [2], 0.0271 µM.

As for `O=C(OCc1ccccc1)N1CC[C@H]2C[C@@H]1c1cc(N3CCN(C4CCC4)CC3)ccc12`, the Ki in assay [1] turned out to be 0.0507 µM; in assay [2], 0.0343 µM.

For the compound `O=C(OCc1ccccc1)N1CC[C@@H]2C[C@H]1c1cc(N3CCN(CCO)CC3)ccc12`, the Ki in assay [1] is 0.51 µM; in assay [2], 0.0753 µM.

On to `CCCCN1C[C@@H]2CN(c3ccc4c(c3)[C@@H]3C[C@H]4CCN3C(=O)OCc3ccccc3)C[C@@H]2C1`, for which the Ki in assay [1] amounted to 0.0502 µM; in assay [2] it was 0.0284 µM.

Consider `O=C(OCc1ccccc1)N1CC[C@@H]2C[C@H]1c1cc(N3CCN(C4CCC4)CC3)ccc12`, for which the results for the Ki in assay [1] and in assay [2] were 0.0329 µM and 0.0124 µM, respectively.

`O=C(CCc1ccccc1)N1CC[C@@H]2C[C@H]1c1cc(N3CCN(CCCF)CC3)ccc12`: the Ki in assay [3] came out at 0.397 µM; in assay [1], 0.0576 µM.

For the compound `CN(C)CCCOC1CN(c2ccc3c(c2)[C@@H]2C[C@H]3CCN2C(=O)OCc2ccccc2)C1`, the Ki in assay [1] stood at 0.118 µM; in assay [2], 0.0578 µM.

With `COCCN1CCN(c2ccc3c(c2)[C@@H]2C[C@H]3CCN2C(=O)OCc2ccccc2)CC1`, the Ki in assay [1] amounted to 0.193 µM; in assay [2], 0.047 µM.

`O=C(OCc1ccc(C(F)(F)F)cc1)N1CC[C@@H]2C[C@H]1c1cc(N3CCN(CCCF)CC3)ccc12`: the Ki in assay [1] came to 0.0679 µM; in assay [2], 0.0209 µM.

As for `Clc1ccc2c(c1)C1CC2CCCN1CCc1ccccc1` (configuration not stated), the affinity in assay [5] corresponds to a Ki of 0.248 µM.

`CCN(CC)C(=O)CCN1CCN(c2ccc3c(c2)[C@@H]2C[C@H]3CCN2C(=O)OCc2ccccc2)CC1`: the Ki came out at 0.0124 µM in assay [3] and 0.197 µM in assay [4].

For the compound `O=C(OCc1ccccc1)N1CC[C@H]2C[C@@H]1c1cc(N3CCN(CCO)CC3)ccc12`, the Ki in assay [1] came to 1.74 µM; in assay [2], 0.201 µM.

In the case of `CNCCN1CCN(c2ccc3c(c2)[C@@H]2C[C@H]3CCN2C(=O)OCc2ccccc2)CC1`, the Ki in assay [3] turned out to be 0.0609 µM; in assay [4], 0.173 µM.

Take `CN(C)CCN1CCN(c2ccc3c(c2)[C@@H]2C[C@H]3CCN2C(=O)OCc2ccccc2)CC1`: the values for the Ki in assay [3] and in assay [4] were 0.052 µM and 0.0834 µM, respectively.

Regarding `O=C(/C=C/c1ccccc1)N1CC[C@@H]2C[C@H]1c1cc(N3CCN(CCCF)CC3)ccc12`, the Ki in assay [3] was determined as 0.0533 µM; in assay [1], 0.185 µM.

For the origin of these results see ChEMBL document CHEMBL5620364, “Structure-affinity relationships of stereoisomers of norbenzomorphan-derived σ2R/TMEM97 modulators” (Eur J Med Chem, 2023).
